Earlier results in patent US10792281B2 (priority 2014, dated 2020).
Where two headings read alike, the source gives them in different places.

Tests used:
[1] = system: nuclear factor kappa-B (NF-kB) and activator protein-1 (AP-1) activity
[2] = human, in vivo
[3] = in vivo
[4] = not given; remark: listed apart in the source

**Q.** Which “effect on AP-1 and NF-kB activity / RANTES production” value [1] does the source give for `CN(C)CCOC(c1ccccc1)c1ccccc1` [Diphenhydramine, diphenhydramine] here?
**A.** ineffective

**Q.** Which results are given for `CC(C)(O)c1ccccc1CC[C@@H](SCC1(CC(=O)O)CC1)c1cccc(/C=C/c2ccc3ccc(Cl)cc3n2)c1` [montelukast]?
**A.** doses without clinically relevant side effects [2]: up to 200 mg/day; drug interactions ([2]; po): no drug interactions; time to peak plasma concentration [3]: 3 to 4 h; effect of food on oral bioavailability and Cmax ([3]; po): not affected by a standard meal; AUC range ([3]; po, 10 mg): 1521 to 4595 ng/h/mL; mean AUC ([3]; po, 10 mg): 2689 ng/h/mL

**Q.** Which half-life (in vivo) does the source give for `Clc1ccc2c(c1)CCc1cccnc1C2=C1CCNCC1` [Desloratadine, desloratadine] here?
**A.** 27 h

**Q.** And the half-life (slow metabolizers)?
**A.** > 50 h

**Q.** For `O=C(O)COCCN1CCN([C@H](c2ccccc2)c2ccc(Cl)cc2)CC1` [levocetirizine], which “doses that can be safely administered” value [2] is on record?
**A.** up to 30 mg/day

**Q.** And the “HRV-induced ICAM-1, cytokine expression, and viral replication” value (human rhinovirus (HRV); airway epithelial cells from both the nose and lung)?
**A.** inhibit

**Q.** What about the “decrease of viral titers” value (human rhinovirus (HRV); in vitro, e.g. rhinovirus) of the same molecule?
**A.** 2 log

**Q.** What about the peak concentration ([4]; repeated 5 mg once daily oral dose) of the same molecule?
**A.** 308 ng/mL

**Q.** And the peak concentration ([4]; single 5 mg oral dose)?
**A.** 270 ng/mL

**Q.** With `CN(c1nccc(=O)[nH]1)C1CCN(c2nc3ccccc3n2Cc2ccc(F)cc2)CC1` [mizolastine] as the molecule, how does the bioavailability (in vivo) read?
**A.** high
